Results reported in the NIST ThermoML archive (doi:10.1016/j.jct.2005.02.004).

Settings: Liquid, Vibrating tube method

CO [methanol]
Settings	mass density [kg/m3]
298.26 K, 235 kPa	785.98
298.26 K, 5000 kPa	790.69
298.26 K, 9999 kPa	795.4
298.26 K, 15013 kPa	799.88
298.26 K, 19987 kPa	804.1
298.26 K, 25008 kPa	808.17
298.26 K, 29997 kPa	812.04
298.26 K, 34991 kPa	815.76
298.26 K, 39981 kPa	819.34
323.22 K, 270 kPa	762.14
323.22 K, 4990 kPa	767.53
323.22 K, 9984 kPa	772.87
323.22 K, 14982 kPa	777.91
323.22 K, 19989 kPa	782.69
323.22 K, 24986 kPa	787.21
323.22 K, 29995 kPa	791.53
323.22 K, 34987 kPa	795.64
323.22 K, 39993 kPa	799.6
348.25 K, 366 kPa	737.29
348.25 K, 4987 kPa	743.46
348.25 K, 9986 kPa	749.65
348.25 K, 14991 kPa	755.42
348.25 K, 20004 kPa	760.84
348.25 K, 25020 kPa	765.94
348.25 K, 30013 kPa	770.76
348.25 K, 34989 kPa	775.32
348.25 K, 40000 kPa	779.7
373.26 K, 534 kPa	710.55
373.26 K, 4983 kPa	717.67
373.26 K, 9990 kPa	724.99
373.26 K, 14998 kPa	731.69
373.26 K, 19985 kPa	737.88
373.26 K, 24994 kPa	743.68
373.26 K, 29997 kPa	749.13
373.26 K, 35001 kPa	754.27
373.26 K, 39996 kPa	759.14
398.28 K, 934 kPa	680.93
398.28 K, 4984 kPa	689
398.28 K, 9998 kPa	697.91
398.28 K, 14986 kPa	705.88
398.28 K, 19987 kPa	713.16
398.28 K, 24992 kPa	719.87
398.28 K, 29991 kPa	726.11
398.28 K, 35005 kPa	731.99
398.28 K, 40004 kPa	737.47
